# According to patent US20250084101A1, “COMPOUND FOR INHIBITING AND DEGRADING IRAK4, AND PHARMACEUTICAL COMPOSITION AND PHARMACEUTICAL APPLICATION THEREOF” (XIZANG HAISCO PHARMACEUTICAL CO., LTD., priority 2022, published 2025):
# Counter-ions that a name gives are not always drawn. Like-named read-outs stand apart in the source and are kept apart here.
# Tests used:
# IRAK4 protein = target: T1, IRAK4 protein (Homo sapiens, UniProt Q9NWZ3); assay: IRAK4 degradation activity in hPBMC cells (24 hours); type: cell-based; conditions: for Remaining IRAK4 protein IRAK4%: 100 nM, relative to vehicle control
# T1 construct: endogenous in cells; host or cells: human peripheral blood mononuclear cells (hPBMC) from healthy volunteers
# T1 sequence (Q9NWZ3 1-460): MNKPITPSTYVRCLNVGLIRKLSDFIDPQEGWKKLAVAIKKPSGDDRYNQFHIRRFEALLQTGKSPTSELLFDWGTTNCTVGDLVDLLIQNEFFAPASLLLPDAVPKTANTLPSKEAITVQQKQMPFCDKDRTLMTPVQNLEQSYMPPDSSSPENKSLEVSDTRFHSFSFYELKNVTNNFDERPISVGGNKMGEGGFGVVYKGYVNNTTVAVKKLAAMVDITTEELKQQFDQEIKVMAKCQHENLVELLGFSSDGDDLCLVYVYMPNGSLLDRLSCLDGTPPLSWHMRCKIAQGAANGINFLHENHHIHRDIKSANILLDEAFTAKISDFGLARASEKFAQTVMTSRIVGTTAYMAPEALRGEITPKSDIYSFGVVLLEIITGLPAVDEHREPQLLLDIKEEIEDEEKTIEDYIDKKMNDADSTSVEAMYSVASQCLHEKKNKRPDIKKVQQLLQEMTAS
# Experimental: hPBMC cells are human peripheral blood mononuclear cells. Peripheral venous blood was taken from healthy volunteers, and hPBMCs were isolated using Ficoll density gradient centrifugation (Ficoll-Paque™ PLUS 1.077, GE, Cat. 17-1140-02). Culture conditions: RPMI-1640+10% FBS+1% penicillin-streptomycin solution. The cells were cultured in an incubator at 37° C. and 5% CO2. The cells were plated in a 24-well plate at 1×10^6 cells/well. After plating, compounds at different concentrations were added, and the cells were cultured in an incubator at 37° C. and 5% CO2 for 24 hours. After the culture was completed, the cells were collected, and RIPA lysis buffer (beyotime, Cat. P0013B) was added. The cells were lysed on ice for 20 minutes, and then centrifuged at 12000 rpm at 4° C. for 10 minutes. The protein sample of the supernatant was collected, the protein was quantified using a BCA kit (Beyotime, Cat. P0009), and then the protein was diluted to 1 mg/mL. The expression of IRAK4 (CST, Cat. 4363S) and the internal reference cofilin (CST, Cat. 5175S) were detected using a fully automated western blot quantitative analyzer (Proteinsimple). The expression level of IRAK4 relative to the internal reference was calculated using compass software. The remaining IRAK4 protein IRAK4% relative to the vehicle control group at different doses was calculated using formula (1), and the IRAK4 protein degradation relative to the vehicle control group at different doses was calculated using formula (2), where IRAK4administration was the expression level of IRAK4 in the administration groups at different doses, and IRAK4vehicle was the expression level of IRAK4 in the vehicle control group. An IRAK4 degradation-drug concentration curve was fit using Graphpad Prism 8 software, and the DC50 was calculated.
# [1] = Pharmacokinetic test in mice; type: in vivo, ICR mice; conditions: plasma, i.g. 10 mg/kg
# Experimental: Experimental animals: Male ICR mice, about 25 g, 6 mice/compound, purchased from Chengdu Ddossy Experimental Animals Co., Ltd.
# Test design: On the day of the experiment, 6 ICR mice were randomly grouped according to their body weights. The animals were fasted with water available for 12 to 14 h one day before the administration, and were fed 4 h after the administration.
# • Vehicle for intravenous administration: 5% DMA+5% Solutol+90% Saline; • Vehicle for intragastric administration: 5% DMSO+30% PEG400+65% (20% SBE-CD); (DMSO: dimethyl sulfoxide; DMA: dimethylacetamide; Solutol: polyethylene glycol-15-hydroxystearate; PEG400: polyethylene glycol 400; SBE-β-CD: sulfobutyl-β-cyclodextrin; Saline: physiological saline)
# Before and after the administration, 0.15 mL of blood was taken from the orbit of the animals under isoflurane anesthesia and placed in an EDTAK2 centrifuge tube. The blood was centrifuged at 5000 rpm and 4° C. for 10 min to collect plasma. The blood collection time points for the intravenous administration group and intragastric administration group were 0 min, 5 min, 15 min, 30 min, 1 h, 2 h, 4 h, 7 h and 24 h. Before analysis and detection, all samples were stored at −60° C. The samples were analyzed quantitatively by LC-MS/MS.
# [2] = target: T2, hERG potassium ion channel (Homo sapiens, UniProt Q12809); assay: Effect on hERG potassium ion channel (manual patch-clamp, CHO cells); type: cell-based; conditions: CHO cells stably expressing hERG, whole cell patch-clamp
# T2 construct: expressed in transfected cells; host or cells: CHO (Chinese hamster ovary) cells stably expressing hERG
# T2 sequence (Q12809 whole entry): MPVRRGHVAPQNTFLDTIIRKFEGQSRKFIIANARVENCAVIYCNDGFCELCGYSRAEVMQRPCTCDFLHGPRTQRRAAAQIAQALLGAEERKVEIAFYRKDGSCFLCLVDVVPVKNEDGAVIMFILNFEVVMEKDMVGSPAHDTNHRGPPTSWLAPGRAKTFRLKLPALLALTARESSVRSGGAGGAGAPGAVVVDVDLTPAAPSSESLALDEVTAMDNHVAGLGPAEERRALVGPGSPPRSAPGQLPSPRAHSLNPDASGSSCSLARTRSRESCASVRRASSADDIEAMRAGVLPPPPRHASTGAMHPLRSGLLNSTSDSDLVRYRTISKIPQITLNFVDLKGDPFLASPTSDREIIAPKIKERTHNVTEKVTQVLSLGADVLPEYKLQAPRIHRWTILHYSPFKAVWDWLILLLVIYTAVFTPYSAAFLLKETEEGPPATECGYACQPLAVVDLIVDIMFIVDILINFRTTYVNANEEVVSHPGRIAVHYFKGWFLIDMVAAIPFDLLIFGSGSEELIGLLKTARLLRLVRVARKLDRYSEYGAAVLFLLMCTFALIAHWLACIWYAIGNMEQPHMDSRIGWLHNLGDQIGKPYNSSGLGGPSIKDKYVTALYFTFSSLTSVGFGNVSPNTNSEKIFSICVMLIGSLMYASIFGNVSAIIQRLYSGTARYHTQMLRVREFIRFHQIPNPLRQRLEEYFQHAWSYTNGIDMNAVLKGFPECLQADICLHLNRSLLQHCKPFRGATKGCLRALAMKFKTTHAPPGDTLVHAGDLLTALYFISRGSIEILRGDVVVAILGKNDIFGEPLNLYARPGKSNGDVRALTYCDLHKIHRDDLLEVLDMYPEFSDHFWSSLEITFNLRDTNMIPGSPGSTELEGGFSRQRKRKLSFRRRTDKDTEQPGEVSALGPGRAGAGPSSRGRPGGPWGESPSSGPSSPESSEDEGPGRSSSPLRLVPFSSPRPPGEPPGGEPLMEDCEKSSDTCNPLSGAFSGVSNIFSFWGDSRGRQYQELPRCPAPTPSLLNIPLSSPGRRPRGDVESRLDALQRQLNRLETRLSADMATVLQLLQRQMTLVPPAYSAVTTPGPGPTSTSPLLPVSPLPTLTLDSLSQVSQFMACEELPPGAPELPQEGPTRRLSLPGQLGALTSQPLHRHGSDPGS
# Source text: Experimental platform: electrophysiological manual patch-clamp system
# Cell line: Chinese hamster ovary (CHO) cell line stably expressing hERG potassium ion channel
# Experimental method: In CHO (Chinese Hamster Ovary) cells stably expressing hERG potassium channel, whole cell patch-clamp technique was used to record hERG potassium channel current at room temperature. The glass microelectrode was made of a glass electrode blank (BF150-86-10, Sutter) by a puller. The tip resistance after filling the liquid in the electrode was about 2-5 MQ. The glass microelectrode can be connected to the patch-clamp amplifier by inserting the glass microelectrode into an amplifier probe. The clamping voltage and data recording were controlled and recorded by the pClamp 10 software through a computer. The sampling frequency was 10 kHz, and the filtering frequency was 2 kHz. After the whole cell records were obtained, the cells were clamped at −80 mV, and the step voltage that induced the hERG potassium current (lhERG) was depolarized from −80 mV to +20 mV for 2 s, then repolarized to −50 mV, and returned to −80 mV after 1 s. This voltage stimulation was given every 10 s, and the administration process was started after the hERG potassium current was confirmed to be stable (at least 1 minute). The compound was administered for at least 1 minute at each test concentration, and at least 2 cells (n≥2) were tested at each concentration.
# Data processing: Data analysis processing was carried out by using pClamp 10, GraphPad Prism 5 and Excel software. The inhibition degree of hERG potassium current (peak value of hERG tail current induced at −50 mV) at different compound concentrations was calculated by the following formula:
# [formula] • where Inhibition % represents the percentage of inhibition of hERG potassium current by the compound, and l and lo represent the amplitude of hERG potassium current after and before the administration, respectively.
# Compound IC50 was calculated using GraphPad Prism 5 software by fitting according to the following equation:
# [formula] • where X represents the Log value of the tested concentration of the test sample, Y represents the inhibition percentage at the corresponding concentration, and Bottom and Top represent the minimum and maximum inhibition percentage, respectively.
# [3] = read-out: IC50 for inhibitory effect on hERG potassium channel current
# [4] = male, ICR, mouse, po, 10 mg/kg, read-out: AUC0-t
SMILES,Remaining IRAK4 protein IRAK4% (IRAK4 protein),"IC50 [2, 3]",DC50 (IRAK4 protein),also measured
"Cn1nc(C2CCC(=O)NC2=O)c2cccc(C#CCO[C@@H]3CCN(C[C@H]4CC[C@H](n5cc(NC(=O)c6cnn7ccc(N8CCO[C@@H](CO)C8)nc67)c(C(F)F)n5)CC4)C[C@@H]3F)c21 (single isomer, unassigned) [Chiral isomer 1 of compound 19]",–,> 20 µM,< 0.02 µM,AUC(0-t) [1]: 13407 ± 4034 ng·h/mL
"Cn1nc(C2CCC(=O)NC2=O)c2cccc(C#CCO[C@H]3CCN(C[C@H]4CC[C@H](n5cc(NC(=O)c6cnn7ccc(N8CCO[C@@H](CO)C8)nc67)c(C(F)F)n5)CC4)C[C@H]3F)c21 (single isomer, unassigned) [Chiral isomer 1 of compound 24]",–,> 40 µM,< 0.02 µM,–
"Cn1nc(C2CCC(=O)NC2=O)c2cccc(C#CCO[C@H]3CCN(C[C@H]4CC[C@H](n5cc(NC(=O)c6cnn7ccc(N8CCO[C@H](CO)C8)nc67)c(C(F)F)n5)CC4)C[C@H]3F)c21 (single isomer, unassigned) [Chiral isomer 1 of compound 25]",–,> 40 µM,< 0.02 µM,–
"Cn1nc(C2CCC(=O)NC2=O)c2cccc(C#CCO[C@@H]3CCN(C[C@H]4CC[C@H](n5cc(NC(=O)c6cnn7ccc(N8CCO[C@@H](CO)C8)nc67)c(C(F)F)n5)CC4)C[C@@H]3F)c21 (single isomer, unassigned) [Chiral isomer 2 of compound 19]",–,–,< 0.02 µM,–
"COC[C@H]1CN(c2ccn3ncc(C(=O)Nc4cn([C@H]5CC[C@H](CN6CC[C@H](OCC#Cc7cccc8c(C9CCC(=O)NC9=O)nn(C)c78)[C@H](F)C6)CC5)nc4C(F)F)c3n2)CCO1 (single isomer, unassigned) [Chiral isomer 2 of compound 23]",–,> 40 µM,< 0.02 µM,–
"Cn1nc(C2CCC(=O)NC2=O)c2cccc(C#CCO[C@H]3CCN(C[C@H]4CC[C@H](n5cc(NC(=O)c6cnn7ccc(N8CCO[C@H](CO)C8)nc67)c(C(F)F)n5)CC4)C[C@H]3F)c21 (single isomer, unassigned) [Chiral isomer 2 of compound 25]",–,> 40 µM,< 0.02 µM,–
"Cn1nc(C2CCC(=O)NC2=O)c2cccc(C#CCO[C@@H]3CCN(C[C@H]4CC[C@H](n5cc(NC(=O)c6cnn7ccc(N8CCO[C@@H](CO)C8)nc67)c(C(F)F)n5)CC4)C[C@@H]3F)c21 (single isomer, unassigned) [Trifluoroacetate salt of chiral isomer 2 of compound 19]",–,> 40 µM,–,"AUC(0-t) [1, 4]: 8300 ± 2850 ng·h/mL"
CN(C[C@H]1CC[C@H](n2cc(NC(=O)c3cnn4ccc(N5C[C@H]6C[C@@H]5CO6)nc34)c(C(F)F)n2)CC1)C1CCN(Cc2cccc3c(C4CCC(=O)NC4=O)nn(C)c23)CC1 (stereo partly shown) [Compound 1],B (10% < B ≤ 50%),–,–,–
"Cn1c(=O)n(C2CCC(=O)NC2=O)c2cccc(C#CCOC3CCN(C[C@H]4CC[C@H](n5cc(NC(=O)c6cnn7ccc(N8C[C@H]9C[C@@H]8CO9)nc67)c(C(F)F)n5)CC4)CC3)c21 (stereo partly shown) [Control compound 1, reference compound]",–,–,–,"AUC(0-t) [1, 4]: 2320 ± 146 ng·h/mL; IC50 ([2]; IC50 for inhibitory effect on hERG potassium channel current): 0.642 µM"

# Continued, in another order:
Remaining IRAK4 protein IRAK4% (IRAK4 protein),SMILES,"IC50 [2, 3]",DC50 (IRAK4 protein),also measured
A (A ≤ 10%),"[2H]C([2H])([2H])n1nc(C2CCC(=O)NC2=O)c2cccc(C#CCOC3CCN(C[C@H]4CC[C@H](n5cc(NC(=O)c6cnn7ccc(N8C[C@H]9C[C@@H]8CO9)nc67)c(C(F)F)n5)CC4)CC3)c21 (relative stereo) [Compound 7, Trans-5-((1R,4R)-2-oxa-5-azabicyclo[2.2.1]heptan-5-yl)-N-(3-(difluoromethyl)-1-(4-((4-((3-(3-(2,6-dioxopiperidin-3-yl)-1-(methyl-d3)-1H-indazol-7-yl)prop-2-yn-1-yl)oxy)piperidin-1-yl)methyl)cyclohexyl)-1H-pyrazol-4-yl) pyrazolo[1,5-a]pyrimidine-3-carboxamide]",–,–,–
B (10% < B ≤ 50%),"CC(C)n1nc(C2CCC(=O)NC2=O)c2cccc(C#CCOC3CCN(C[C@H]4CC[C@H](n5cc(NC(=O)c6cnn7ccc(N8C[C@H]9C[C@@H]8CO9)nc67)c(C(F)F)n5)CC4)CC3)c21 (single isomer, unassigned) [Chiral isomer 1 of compound 8]",–,–,–
A (A ≤ 10%),CCn1nc(C2CCC(=O)NC2=O)c2cccc(C#CCOC3CCN(C[C@H]4CC[C@H](n5cc(NC(=O)c6cnn7ccc(N8C[C@H]9C[C@@H]8CO9)nc67)c(C(F)F)n5)CC4)CC3)c21 (stereo partly shown) [Compound 6],–,–,–
A (A ≤ 10%),Cn1nc(C2CCC(=O)NC2=O)c2cccc(C#CCO[C@@H]3CCN(C[C@H]4CC[C@H](n5cc(NC(=O)c6cnn7ccc(N8C[C@H]9C[C@@H]8CO9)nc67)c(C(F)F)n5)CC4)C[C@@H]3F)c21 (stereo partly shown) [Compound 10],> 30 µM,–,"AUC(0-t) [1, 4]: 17500 ± 5260 ng·h/mL"
B (10% < B ≤ 50%),Cn1nc(C2CCC(=O)NC2=O)c2cccc(C#CCO[C@H]3CCN(C[C@H]4CC[C@H](n5cc(NC(=O)c6cnn7ccc(N8C[C@H]9C[C@@H]8CO9)nc67)c(C(F)F)n5)CC4)C[C@@H]3F)c21 (stereo partly shown) [Compound 12],> 30 µM,–,–
B (10% < B ≤ 50%),Cn1nc(C2CCC(=O)NC2=O)c2cccc(C#CCO[C@@H]3CCN(C[C@H]4CC[C@H](n5cc(NC(=O)c6cnn7ccc(N8C[C@H]9C[C@@H]8CO9)nc67)c(C(F)F)n5)CC4)C[C@H]3F)c21 (stereo partly shown) [Compound 13],–,–,–
A (A ≤ 10%),O=C1CCC(c2nn(C3CC3)c3c(C#CCOC4CCN(C[C@H]5CC[C@H](n6cc(NC(=O)c7cnn8ccc(N9C[C@H]%10C[C@@H]9CO%10)nc78)c(C(F)F)n6)CC5)CC4)cccc23)C(=O)N1 (stereo partly shown) [Compound 16],–,–,–
B (10% < B ≤ 50%),Cn1nc(C2CCC(=O)NC2=O)c2cccc(C#CCOC3CCN(C[C@H]4CC[C@H](n5cc(NC(=O)c6cnn7cc(F)c(N8C[C@H]9C[C@@H]8CO9)nc67)c(C(F)F)n5)CC4)CC3)c21 (stereo partly shown) [Trifluoroacetate salt of compound 15],–,–,–
